The test system of one experiment is human PBLs. Nature of the experiment: Effect of sophorolipids on inflammatory mediators in LPS-treated human PBLs. Format: cell-based. The following applies: 1, 5 and 10 μm. The method, then: PBLs were isolated from human blood. PBLs were treated with LPS to induce inflammatory response in the presence of different concentrations (1 μm, 5 μm, and 10 μm) of six sophorolipids: […]); BSL(6'OH,6''OH); and BSL(6'Ac,6''Ac).

Another experiment deals with Microglial cells. Nature of the experiment: Effect of sophorolipid pre-treatment on inflammatory mediators in LPS-stimulated microglia. Format: cell-based, rats. The following applies: E22 rat primary microglia, 24 h pre-treatment, LPS stimulation. The method, then:
Microglial cells were obtained from primary microglial cultures from […] rats. On day 1, microglial cells were seeded in 96-well plates and allowed to adhere for 24 hours. On day 3, the microglial cells were pre-treated with sophorolipid for 24 hours (n=11). On day 4, the microglial cells were stimulated with lipopolysaccharide (LPS). On day 5, supernatants were collected and analysed for cytokines of interest.

Where two headings read alike, the source gives them in different places.

In the case of `CCCCOC(=O)CCCCCCC/C=C\CCCCCC[C@H](C)O[C@@H]1O[C@H](COC(C)=O)[C@@H](O)[C@H](O)[C@H]1O[C@@H]1O[C@H](COC(C)=O)[C@@H](O)[C@H](O)[C@H]1O` (relative stereo) [BSL(6′Ac,6″Ac), butyl-17-L-[(2′-0-β-D-glucopyranosyl-β-D-glucopyranosyl)-oxy]-cis-9-octadecenoate-6′-6″-diacetate], the TNF-α secretion entry in the experiment with human PBLs was “decreased”.

As to `CCOC(=O)CCCCCCC/C=C\CCCCCC[C@H](C)O[C@@H]1O[C@H](COC(C)=O)[C@@H](O)[C@H](O)[C@H]1O[C@@H]1O[C@H](COC(C)=O)[C@@H](O)[C@H](O)[C@H]1O` (relative stereo) [ESL(6′Ac,6″Ac), ethyl-17-L-[(2′-0-β-D-glucopyranosyl-β-D-glucopyranosyl)-oxy]-cis-9-octadecenoate-6′-6-diacetate], in the experiment on human PBLs, the IL-1β secretion entry is “decreased”, the IL-6 secretion entry is “decreased”, the IL-8 secretion entry is “decreased” and the MIP-1β secretion result was “decreased”. In addition, in the experiment on human PBLs, the TNF-α secretion entry is “decreased”.

As to `CCOC(=O)CCCCCCC/C=C\CCCCCC[C@H](C)O[C@@H]1O[C@H](CO)[C@@H](O)[C@H](O)[C@H]1O[C@@H]1O[C@H](COC(C)=O)[C@@H](O)[C@H](O)[C@H]1O` (relative stereo) [ESL(6′OH,6″Ac), ethyl-17-L-[(2′-0-β-D-glucopyranosyl-β-D-glucopyranosyl)-oxy]-cis-9-octadecenoate-6″-acetate], in the experiment with human PBLs, the MIP-1β secretion entry is “decreased” and the TNF-α secretion result is recorded as “decreased”.

Take Sophorolipid: the IC50 in the experiment on Microglial cells (read-out: PGE2 secretion, 1050) stood at 29.8 µM; in the experiment on Microglial cells (read-out: TNF-alpha secretion, 1050) it was 21.2 µM.

Values taken from patent US20230086913A1, “USE OF SOPHOROLIPIDS AS FEED ADDITIVE” (DSM IP ASSETS B.V., priority 2017, published 2023).
